Experiments:
[1] = test system: TNFα release by PBMCs stimulated by LPS; experiment: Inhibition of TNFα release by mononuclear cells (PBMCs) stimulated by LPS; assay type: cell-based; details: compound 1 hour before LPS, further 20 hours, TNFα in supernate by ELISA
Excerpt: 1. Effects of Mononuclear Cells (PBMCs) Stimulated by LPS on TNFα
The research in respect of cytokine TNFα release by PBMCs in the human peripheral blood after stimulated by lipopolysaccharide (LPS) can be carried out in vitro. The research method for inhibiting cytokine TNFα release by PBMCs upon stimulation by LPS with the pharmaceutical active ingredients in the present application is described as follows.
PBMCs are obtained from heparin treated blood of at least three volunteer donors. The heparin treated blood of at least three volunteer donors was subject to gradient separation of the known method to obtain PBMCs. The PBMCs were collected and washed with 1640 medium (10% fetal bovine serum, 2 mM L-glutamine, […] mercaptoethanol, 50 μg/ml streptomycin and 50 U/ml penicillin) three times. The PBMCs was added into a 24-well plate and prepared with a concentration of 1×10^6 cell/ml with 1640 medium. A compound to be tested was dissolved in dimethylsulfoxide and prepared as a solution of the compound to be tested with a required concentration. The solution was added into the cell cultures. After incubated in a CO2 incubator (5% CO2, 90% humidity) for 1 hour, LPS (Sigma) was added until […] (except for the control).
After the medium was further incubated for 20 hours, the content of TNFα in the supernate of the PBMCs medium was measured by the standard method with commercial ELISA kit (U. S Genzyme Co). The inhibition ratio of TNFα was calculated by the measured value of control well without treated by active ingredients and the measured value of the test well using the test compound. The concentration of generating 50% inhibition of the TNFα release (IC50 value) was calculated with nonlinear regression analysis. Each concentration was measured twice simultaneously and an average value was calculated.

PDE4D2 = molecular target: T1, PDE4D2 (Homo sapiens, UniProt Q08499); experiment: Inhibitory activity of PDE4 enzyme (hydrolysis of cAMP), PDE4D2; assay type: biochemical; details: cAMP 5 μM, 37° C., 15 min to 30 min, AMP by HPLC-MS
T1 construct: purchased BPS bioscience 60043
T1 sequence (Q08499 303-809): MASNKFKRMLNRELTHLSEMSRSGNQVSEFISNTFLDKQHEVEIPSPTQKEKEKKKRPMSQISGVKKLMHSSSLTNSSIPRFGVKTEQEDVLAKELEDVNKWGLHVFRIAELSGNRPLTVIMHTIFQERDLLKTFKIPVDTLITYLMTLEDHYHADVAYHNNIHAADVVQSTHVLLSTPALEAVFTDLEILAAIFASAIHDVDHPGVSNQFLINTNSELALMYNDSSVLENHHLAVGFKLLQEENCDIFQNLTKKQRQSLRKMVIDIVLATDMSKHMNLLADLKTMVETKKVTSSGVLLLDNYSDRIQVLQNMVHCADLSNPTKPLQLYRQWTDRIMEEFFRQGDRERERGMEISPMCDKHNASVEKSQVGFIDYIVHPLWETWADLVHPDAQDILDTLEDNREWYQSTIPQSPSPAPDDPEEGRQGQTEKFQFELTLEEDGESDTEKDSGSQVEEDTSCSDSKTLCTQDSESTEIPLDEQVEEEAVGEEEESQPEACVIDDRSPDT
Experimental: (§1) (1) The inhibitory actions of compounds on activity of hydrolyzing cAMP with PDE4 enzyme were assayed by the inhibitory activity of PDE4 enzyme. The procedures are described as follows.
(§2) Humanized PDE4A1A, PDE4B1 and PDE4D2 were purchased from BPS bioscience (catalogue Nos.: 60040, 60041 and 60043, respectively). The enzyme reactions were carried out in 10 mM Tris-HCl (pH 7.4) and 1 mM MgCl2. The concentration of cAMP was 5 μM. The reaction was maintained at 37° C. for 15 min to 30 min so that the consumption of the substrate was controlled within 20%. The reaction was quenched with equal volume of acetonitrile. The production amount of the […] AMP was measured by HPLC-MS. The inhibitory activity of compounds on PDE4 enzyme was obtained by comparing the production amounts of the AMP in the experimental groups having the compounds with those of the control groups having no compounds.

PDE4B1 = molecular target: T2, PDE4B1 (Homo sapiens, UniProt Q07343); experiment: Inhibitory activity of PDE4 enzyme (hydrolysis of cAMP), PDE4B1; assay type: biochemical; details: cAMP 5 μM, 37° C., 15 min to 30 min, AMP by HPLC-MS
T2 construct: purchased BPS bioscience 60041
T2 sequence (Q07343 whole entry): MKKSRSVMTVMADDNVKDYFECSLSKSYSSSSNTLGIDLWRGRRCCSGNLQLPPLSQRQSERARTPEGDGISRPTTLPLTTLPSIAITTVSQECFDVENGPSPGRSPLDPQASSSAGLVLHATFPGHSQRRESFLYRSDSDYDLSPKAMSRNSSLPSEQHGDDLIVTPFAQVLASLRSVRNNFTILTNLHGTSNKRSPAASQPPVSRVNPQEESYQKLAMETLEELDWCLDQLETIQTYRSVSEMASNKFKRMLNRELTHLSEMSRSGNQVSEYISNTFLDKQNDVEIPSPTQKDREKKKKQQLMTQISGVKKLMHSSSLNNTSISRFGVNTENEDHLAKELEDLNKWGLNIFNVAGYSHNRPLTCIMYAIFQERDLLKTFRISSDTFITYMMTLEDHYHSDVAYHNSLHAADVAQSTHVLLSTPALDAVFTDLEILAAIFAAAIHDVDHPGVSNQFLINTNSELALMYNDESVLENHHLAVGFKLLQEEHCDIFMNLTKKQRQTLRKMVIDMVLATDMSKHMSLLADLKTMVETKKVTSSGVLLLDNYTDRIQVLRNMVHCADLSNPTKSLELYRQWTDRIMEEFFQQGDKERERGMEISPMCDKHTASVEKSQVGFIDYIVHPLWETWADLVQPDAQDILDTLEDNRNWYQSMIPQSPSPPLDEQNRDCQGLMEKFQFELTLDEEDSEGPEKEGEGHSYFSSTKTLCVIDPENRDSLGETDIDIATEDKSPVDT
Experimental: as §1, §2

PDE2A = molecular target: T3, PDE2A (Homo sapiens, UniProt O00408); experiment: Inhibitory activity of PDE2 (selectivity of PDE enzyme); assay type: biochemical; details: cAMP 5 μM, 37° C., 30 min, AMP by HPLC-MS
T3 construct: purchased BPS bioscience 60020
T3 sequence (O00408 whole entry): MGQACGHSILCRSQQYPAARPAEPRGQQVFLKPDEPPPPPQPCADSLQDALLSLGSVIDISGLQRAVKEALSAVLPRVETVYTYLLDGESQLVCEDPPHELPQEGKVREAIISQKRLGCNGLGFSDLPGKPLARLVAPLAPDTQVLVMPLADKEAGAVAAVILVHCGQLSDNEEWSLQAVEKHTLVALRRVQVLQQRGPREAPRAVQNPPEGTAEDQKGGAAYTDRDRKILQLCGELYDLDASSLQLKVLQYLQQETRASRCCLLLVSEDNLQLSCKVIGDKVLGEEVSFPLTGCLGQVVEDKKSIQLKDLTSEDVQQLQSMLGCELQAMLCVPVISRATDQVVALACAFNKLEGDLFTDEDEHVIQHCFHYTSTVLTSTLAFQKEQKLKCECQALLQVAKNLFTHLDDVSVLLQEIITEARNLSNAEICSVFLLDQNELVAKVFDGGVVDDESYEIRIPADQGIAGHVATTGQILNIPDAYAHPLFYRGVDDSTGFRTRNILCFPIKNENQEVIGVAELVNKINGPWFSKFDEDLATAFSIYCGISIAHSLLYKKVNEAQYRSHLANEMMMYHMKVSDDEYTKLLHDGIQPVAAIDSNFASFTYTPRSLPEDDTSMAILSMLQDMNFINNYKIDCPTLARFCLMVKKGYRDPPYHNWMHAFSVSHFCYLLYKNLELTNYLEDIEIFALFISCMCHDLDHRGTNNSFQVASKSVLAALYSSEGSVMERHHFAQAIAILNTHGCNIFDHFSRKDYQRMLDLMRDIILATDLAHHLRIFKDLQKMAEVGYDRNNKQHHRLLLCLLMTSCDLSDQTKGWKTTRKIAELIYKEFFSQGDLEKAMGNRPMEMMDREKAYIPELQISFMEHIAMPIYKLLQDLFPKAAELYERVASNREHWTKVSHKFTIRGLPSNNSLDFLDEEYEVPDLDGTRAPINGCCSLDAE
Experimental: (2) Inhibitory Activity of PDE2 (Selectivity of PDE Enzyme):
as §2, with “PDE2A was” for “PDE4A1A, PDE4B1 and PDE4D2 were”, “No.: 60020).” for “Nos.: 60040, 60041 and 60043, respectively).”, “reaction was” for “reactions were”, “μM,” for “μM.”, “for” for “for 15 min to”, “PDE2” for “PDE4 enzyme”

PDE4A1A = molecular target: T4, PDE4A1A (Homo sapiens, UniProt P27815); experiment: Inhibitory activity of PDE4 enzyme (hydrolysis of cAMP), PDE4A1A; assay type: biochemical; details: cAMP 5 μM, 37° C., 15 min to 30 min, AMP by HPLC-MS
T4 construct: purchased BPS bioscience 60040
T4 sequence (P27815 1-647 isoform P27815-4): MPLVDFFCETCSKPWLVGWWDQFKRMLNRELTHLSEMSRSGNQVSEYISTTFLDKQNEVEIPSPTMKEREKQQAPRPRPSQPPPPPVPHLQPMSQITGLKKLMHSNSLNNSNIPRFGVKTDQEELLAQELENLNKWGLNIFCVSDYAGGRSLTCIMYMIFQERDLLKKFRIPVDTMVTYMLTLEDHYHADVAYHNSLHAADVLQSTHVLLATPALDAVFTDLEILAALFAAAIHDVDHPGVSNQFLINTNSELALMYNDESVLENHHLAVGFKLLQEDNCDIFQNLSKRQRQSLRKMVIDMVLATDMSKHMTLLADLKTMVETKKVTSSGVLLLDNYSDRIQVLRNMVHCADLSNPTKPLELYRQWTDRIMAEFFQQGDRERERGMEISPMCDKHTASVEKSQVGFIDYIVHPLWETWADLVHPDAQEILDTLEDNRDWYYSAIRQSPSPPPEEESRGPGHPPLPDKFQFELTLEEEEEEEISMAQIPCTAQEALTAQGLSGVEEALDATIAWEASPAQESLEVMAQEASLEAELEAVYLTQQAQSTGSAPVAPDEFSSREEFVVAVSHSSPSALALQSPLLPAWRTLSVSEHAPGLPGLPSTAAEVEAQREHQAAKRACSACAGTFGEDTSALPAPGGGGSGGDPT
Experimental: as §1, §2

Compound | IC50 (PDE4D2) | IC50 (PDE4B1) | IC50 (PDE2A) | IC50 (PDE4A1A) | IC50 ([1]; Homo sapiens, PBMC) | IC50 ([1]; human PBMCs)
CCOc1cc(C(CS(C)(=O)=O)N2C(=O)c3csc(N)c3C2=O)ccc1OC (stereo not shown) [Example 2, 5-(1-(3-ethoxy-4-methoxyphenyl)-2-(methylsulfonyl)ethyl)-1-amino-5H-thiophene[3,4-c]pyrrole-4,6-diketone] | 1900 nM | 212 nM |  |  | 524 nM | 
CCOc1cc(C(CS(C)(=O)=O)N2C(=O)c3csc(NC(C)=O)c3C2=O)ccc1OC (stereo not shown) [Example 3, N-(5-(1-(3-ethoxy-4-methoxyphenyl)-2-(methylsulfonyl)ethyl)-4,6-dioxo-5,6-dihydro-4H-thiophene[3,4-c]pyrrole-1-yl)acetamide] | 224 nM | 256 nM | 36000 nM | 208 nM |  | 296 nM
CCOc1cc(C(CS(C)(=O)=O)N2C(=O)c3cscc3C2=O)ccc1OC (stereo not shown) [Example 4, 5-(1-(3-ethoxy-4-methoxyphenyl)-2-(methylsulfonyl)ethyl)-5H-thiophene[3,4-c]pyrrole-4,6-diketone] | 329 nM | 1200 nM |  | 366 nM | 886 nM | 
CCOc1cc([C@@H](CS(C)(=O)=O)N2C(=O)c3csc([N+](=O)[O-])c3C2=O)ccc1OC [Example 20, (S)-1-nitro-5-(1-(3-ethoxy-4-methoxyphenyl)-2-(methylsulfonyl)ethyl)-5H-thiophene[3,4-c]pyrrole-4,6-diketone] |  | 26 nM |  |  |  | 
CCOc1cc([C@@H](CS(C)(=O)=O)N2C(=O)c3csc(N)c3C2=O)ccc1OC [Example 21, (S)-1-amino-5-(1-(3-ethoxy-4-methoxyphenyl)-2-(methylsulfonyl)ethyl)-5H-thiophene[3,4-c]pyrrole-4,6-diketone] |  |  |  |  |  | 142 nM
CCOc1cc([C@H](CS(C)(=O)=O)N2C(=O)c3csc(NC(C)=O)c3C2=O)ccc1OC [Example 25, (R)—N-(5-(1-(3-ethoxy-4-methoxyphenyl)-2-(methylsulfonyl)ethyl)-4,6-dioxo-5,6-dihydro-4H-thiophene[3,4-c]pyrrole-1-yl)acetamide] |  |  |  |  |  | 1190 nM
CCOc1ccc(C(CS(C)(=O)=O)N2C(=O)c3csc(NC(C)=O)c3C2=O)cc1OC (stereo not shown) [Example 26, N-(5-(1-(3-methoxy-4-ethoxyphenyl)-2-(methylsulfonyl)ethyl)-4,6-dioxo-5,6-dihydro-4H-thiophene[3,4-c]pyrrole-1-yl)acetamide] |  |  |  |  |  | > 10000 nM

The next lines start with results.

IC50 (PDE4D2) | IC50 (PDE4B1) | IC50 (PDE2A) | IC50 (PDE4A1A) | Compound | IC50 ([1]; Homo sapiens, PBMC) | IC50 ([1]; human PBMCs)
 | 368 nM |  |  | CCOc1cc([C@@H](CS(C)(=O)=O)N2C(=O)c3cscc3C2=O)ccc1OC [Example 5, (S)-5-(1-(3-ethoxy-4-methoxyphenyl)-2-(methylsulfonyl)ethyl)-5H-thiophene[3,4-c]pyrrole-4,6-diketone] | 376 nM | 
315 nM | 2300 nM |  |  | CCOc1cc([C@H](CS(C)(=O)=O)N2C(=O)c3cscc3C2=O)ccc1OC [Example 6, (R)-5-(1-(3-ethoxy-4-methoxyphenyl)-2-(methylsulfonyl)ethyl)-5H-thiophene[3,4-c]pyrrole-4,6-diketone] | 2500 nM | 
831 nM | 5300 nM |  |  | COc1ccc(C(CS(C)(=O)=O)N2C(=O)c3cscc3C2=O)cc1OCc1ccccc1 (stereo not shown) [Example 9, 5-(1-(3-phenylmethoxy-4-methoxyphenyl)-2-(methylsulfonyl)ethyl)-5H-thiophene[3,4-c]pyrrole-4,6-diketone] | 7500 nM | 
 | 1000 nM |  |  | COc1ccc(C(CS(C)(=O)=O)N2C(=O)c3csc(N)c3C2=O)cc1OCc1ccccc1 (stereo not shown) [Example 11, 5-(1-(3-phenylmethoxy-4-methoxyphenyl)-2-(methylsulfonyl)ethyl)-1-amino-5H-thiophene[3,4-c]pyrrole-4,6-diketone] | > 10000 nM | 
 | 1200 nM |  |  | COc1ccc(C(CS(C)(=O)=O)N2C(=O)c3csc(NC(C)=O)c3C2=O)cc1OCc1ccccc1 (stereo not shown) [Example 12, N-(5-(1-(3-phenylmethoxy-4-methoxyphenyl)-2-(methylsulfonyl)ethyl)-4,6-dioxo-5,6-dihydro-4H-thiophene[3,4-c]pyrrole-1-yl)acetamide] | > 10000 nM | 
 | 618 nM |  |  | CCOc1cc(C(CS(C)(=O)=O)N2C(=O)c3csc(NC(=O)CCl)c3C2=O)ccc1OC (stereo not shown) [Example 18, 2-chloro-N-(5-(1-(3-ethoxy-4-methoxyphenyl)-2-(methylsulfonyl)ethyl)-4,6-diketone-5,6-dihydro-4H-thiophene[3,4-c]pyrrole-1-yl)acetamide] | 216 nM | 
 | 167 nM |  |  | CCOc1cc(C(CS(C)(=O)=O)N2C(=O)c3csc(NS(C)(=O)=O)c3C2=O)ccc1OC (stereo not shown) [Example 19, N-(5-(1-(3-ethoxy-4-methoxyphenyl)-2-(methylsulfonyl)ethyl)-4,6-diketone-5,6-dihydro-4H-thiophene[3,4-c]pyrrole-1-yl)methanesulfonamide] | 288 nM | 
55 nM | 718 nM |  |  | CCOc1cc([C@H](CS(C)(=O)=O)N2C(=O)c3csc(N)c3C2=O)ccc1OC [Example 23, (R)-1-amino-5-(1-(3-ethoxy-4-methoxyphenyl)-2-(methylsulfonyl)ethyl)-5H-thiophene[3,4-c]pyrrole-4,6-diketone] | 1900 nM | 
114 nM | 178 nM | > 50000 nM | 104 nM | CCOc1cc([C@@H](CS(C)(=O)=O)N2C(=O)c3csc(NC(C)=O)c3C2=O)ccc1OC [Example 24, (S)—N-(5-(1-(3-ethoxy-4-methoxyphenyl)-2-(methylsulfonyl)ethyl)-4,6-dioxo-5,6-dihydro-4H-thiophene[3,4-c]pyrrole-1-yl)acetamide] |  | 65 nM

— patent US10611775B2, “Thiophene derivatives” (TIANJIN HEMAY PHARMACEUTICAL CO., LTD., priority 2009, dated 2020)
